In paper PMC4414144, “Plasmin releases the anti-tumor peptide from the NC1 domain of collagen XIX” (Oncotarget, 2015):
Entries after “also recorded” stand apart in the source; their conditions may differ.

Legend:
[1] = test system: tumor cells; conditions: in vitro; ref [25]; cited from earlier work
Description: (§1) Type XIX collagen is one of the minor basement membrane-associated collagens. It was discovered in 1992, isolated from rhabdomyosarcoma cell lines and named collagen Y [16]. This discovery was completed in 1993 by Myers et al who gave it the name of RH collagen. It is a 400 kDa homotrimer, composed by the association of three α1(XIX) chains. Each chain comprises 1142 residues, including six non-collagenous domains (NC1-NC6) separated by five collagenous domains (Col1-Col5). This collagen presents high structural homology with other types of collagens IX, XII, XIV, X ...

[2] = test system: tumor angiogenesis; conditions: in vitro and in vivo; ref [26]; cited from earlier work
Description: as §1

[3] = test system: experimental murine melanoma; conditions: experimental murine melanoma model; ref [26]; cited from earlier work
Description: as §1

[4] = test system: experimental cancer models; conditions: cited from earlier work
Description: The basement membrane is a complex structure mainly composed of laminins, nidogens, heparan sulfate proteoglycans (perlecan and/or agrin), and type IV collagen. More recently, associations between basement membrane and minor collagens such as type XVIII, XV or type XIX were reported and named basement membrane zone. These collagenous components associated with the basement membrane represent a dynamic interface between this structure and the stroma. Basement membrane has long been described as a simple architectural cell support. […] For instance, endostatin, the NC1 domain of type XVIII collagen, is released by many proteases such as MMP-3, 7, 9, 12, 13, 20 [14, 35, 36], or cathepsins B, L, S, V [37, 38, 39]. […] Tumstatin, the NC1 domain of type IV collagen is generated in vivo by MMP-9 [7]. It exerts anti-tumor and anti ...

[5] = test system: SKMEL28 cells; assay: Scratch wound assay; format: cell-based, human; conditions: F4 200 μg/mL, p < 0.05 vs control, five experiments
Experimental: (§2) Human melanoma cell line (SKMEL28) was purchased from the American Type Culture Collection (ATCC, Manassas, VA). Cells were grown in Dulbecco's Modified Eagle's medium (DMEM) supplemented with 10% Fetal Bovine Serum (FBS), 1% penicillin and streptomycin (PenStrep®, Gibco®, France) in Nunclon® 75 cm^2 flasks (Dutscher, Brumath, France) at 37°C in a humid atmosphere (5% CO2, 95% air). Murine melanoma B16F1 cells, were a generous gift of Dr. M. Grégoire (INSERM UMRS 419, Nantes, France). They were grown in RPMI 1640 medium supplemented with 5% FBS in Nunclon 25 cm^2 flasks at 37°C in a humid atmosphere (5% CO2, 95% air). All culture media and reagents were purchased from Life Technologies (Invitrogen, Strasbourg, France).
SKMEL28 cells (5 × 10^4 per well) were seeded in 24-well plates and cultivated to confluence in DMEM supplemented with 5% FBS. The cell layer was then wounded with a sterile 100 to 1000 μL pipet tip and re-incubated in fresh culture medium in the absence or presence of F4 peptide. After 24 h, 48 h or 72 h, cells were photographed and the size of the remaining wound measured.

[6] = Intra-chain disulfide bond formation in solution; format: physicochemical; conditions: for Time for spontaneous intra-chain disulfide bond formation (C^1123-C^1128): in solution; for Intra-chain disulfide bond formation Cys^1123-Cys^1128: in solution over the time, MALDI-ToF MS
Experimental: (§3) Solutions of matrix α–cyano-4-hydroxycinnamic acid (CHCA) was prepared as a saturated solution in ACN/water (1/1; v/v) containing 0.1% TFA (10 mg/mL). Samples were prepared at a concentration of 10 pmol/μL in water containing 0.1% TFA. Typically, 1 μL of the matrix was pipetted on the MALDI target plate. Then 1 μL of analyte was added and air-dried for MALDI-ToF MS analysis.
(§4) MS experiments were performed using micromass MALDITM–LR time-of-flight mass spectrometer (Waters MS technologies, Manchester, UK) equipped with a nitrogen UV laser (337 nm wavelength), reflectron optics, a fast dual micro-channel plate (MCP) detector and a high magnification camera system. Positive ion spectra were acquired in reflectron mode. The following voltages were applied: pulse 1940 V, MCP 2380 V, suppression 500, flight tube 12000 V, reflectron 5200 V. A time lag focusing (TLF) delay of 680 ns was used between the time of laser pulse and the application of the accelerating voltage. Samples were analyzed in reflectron acquisition mode in the mass range 550-4000 Da. Mass calibration was performed using a peptide mixture composed of Bradykinin fragment 1–5 (573.31 Da), human Angiotensin II (1046.54 Da), Neurotensin (1672.92 Da), ACTH clip (2465.20 Da), bovine Insulin ß-chain oxidized (3494.65 Da) and bovine Insulin (5730.61 Da).

[7] = test system: B16F1 cells; assay: In vivo murine melanoma model, tumor growth; parameters: species or system mouse (murine B16F1 melanoma in C57Bl6 mice); conditions: day 15; B16F1 cells pre-incubated 30 min with F4, s.c.; re-injected i.p. day 7 and 14; ten mice; p < 0.05 vs controls
Experimental: as §2
C57Bl6 mice (average body weight: 16–18 g) were purchased from Harlan France (Gannat, France). The in vivo experiments were conducted according to the ethical guidelines of the Centre National de la Recherche Scientifique (CNRS). In vivo melanoma model was previously described (Ramont et al., 2007). Briefly, 2.5 × 10^5 B16F1 cells, pre-incubated (30 min) with either control medium or F4 peptide, were subcutaneously injected into the left side of 10 syngenic C57BL6 mice. Treatments were re-injected intraperitoneally at day 7 and 14. Tumor size was measured regularly.

[8] = test system: plasmin; assay: P36 peptide digestion in SKMEL28 melanoma cell cultures; format: cell-based, human; conditions: MALDI-ToF MS
Experimental: as §2
SKMEL28 were incubated in DMEM with 20 μL plasminogen (40 μg/mL) and/or 20 μL plasmin (10 μg/mL) and/or aprotinin (10^−5 M) and P36 peptide. Samples were analyzed using HPLC and Matrix Assisted Laser Desorption Ionisation – Time of flight protocol (MALDI-ToF) as described below.
siRNA specific to human tPA (FlexiTube GeneSolution for PLAT) was purchased from Qiagen (Courtaboeuf, France). The siRNA target different regions of the tPA mRNA: 1st siRNA target sequence (5′-[…]-3′), 2nd siRNA target sequence (5′-[…]-3′), 3rd siRNA target sequence (5′-[…]-3′) and 4th siRNA target sequence (5′-[…]-3′). Exponentially growing SKMEL28 cells were transfected with siRNA pools (20 nM) using lipofectamine™ 2000. Decrease of tPA mRNA expression was assessed by RT-qPCR at 48 h after transfection. Decrease of tPA protein expression was monitored by zymography and immunocytofluorescence 72 h after siRNA transfection. Cells were subjected to plasminogen treatment for P36 peptide cleavage 24 h after transfection.

[9] = test system: plasmin; assay: Plasmin activity measurement in SKMEL28 culture, chromogenic substrate S-2251; format: cell-based, human; conditions: SKMEL28 with plasminogen; S-2251 hydrolysis at 405 nm
Experimental: After washing with DPBS, cells were incubated in DMEM with/without 20 μL plasminogen (40 μg/mL) and/or 20 μL plasmin (10 μg/mL) and/or 20 μL plasmin chromogenic substrate (250 μg/mL). Hydrolysis of the S-2251 chromogenic substrate (Chromogenix, distributed by Hyphen Biomed, Neuville sur Oise, France) was measured at 405 nm at different time.

[10] = biological target: T1, plasmin (Homo sapiens, UniProt P00747); assay: P36 peptide digestion in vitro by plasmin (HPLC, MALDI-ToF MS); format: biochemical; conditions: for Effect on P36 peptide plasmin digestion: 16 h, E:S 1:50, HPLC
T1 construct: purchased Merck, Darmstadt
T1 sequence (P00747 97-580 partner limits assumed, species assumed): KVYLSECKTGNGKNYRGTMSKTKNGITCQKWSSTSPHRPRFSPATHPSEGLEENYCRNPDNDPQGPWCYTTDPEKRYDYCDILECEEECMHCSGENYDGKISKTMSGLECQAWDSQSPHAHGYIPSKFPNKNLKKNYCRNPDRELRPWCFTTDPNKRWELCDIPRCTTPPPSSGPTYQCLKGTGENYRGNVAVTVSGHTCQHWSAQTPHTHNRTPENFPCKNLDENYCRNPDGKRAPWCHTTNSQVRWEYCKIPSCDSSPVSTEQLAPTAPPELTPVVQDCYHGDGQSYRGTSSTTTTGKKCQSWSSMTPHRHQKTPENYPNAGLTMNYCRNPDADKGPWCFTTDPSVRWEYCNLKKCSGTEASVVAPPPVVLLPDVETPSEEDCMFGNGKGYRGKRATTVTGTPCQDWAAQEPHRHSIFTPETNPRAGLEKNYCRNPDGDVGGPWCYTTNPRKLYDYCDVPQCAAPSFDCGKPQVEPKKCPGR
T1 sequence (P00747 581-810 limits assumed, species assumed): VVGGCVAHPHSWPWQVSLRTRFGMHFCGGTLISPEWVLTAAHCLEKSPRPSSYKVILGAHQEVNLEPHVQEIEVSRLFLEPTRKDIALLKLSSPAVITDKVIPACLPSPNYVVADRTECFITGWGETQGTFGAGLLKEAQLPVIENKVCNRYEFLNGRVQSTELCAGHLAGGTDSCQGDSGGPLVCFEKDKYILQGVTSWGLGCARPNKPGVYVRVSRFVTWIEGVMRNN
Experimental: Lyophilized plasmin with a specific activity of 10 U/mg (Merck, Darmstadt, Allemagne) was dissolved in sterile water to a concentration of 1 mg/mL. In control sample, P36 peptide (6.79 × 10^−4 M) was incubated overnight at 37°C in a Tris-HCl buffer (150 mM NaCl, 5 mM CaCl2, 50 mM Tris-HCl, pH 7.5). […] Aliquots were analyzed by HPLC as described below.
Dose-dependent digestion of P36 peptide by plasmin was measured by incubating P36 peptide 16 h at 37°C with different plasmin concentrations. Time-dependent analysis of P36 peptide cleavage by plasmin was obtained by incubating P36 with plasmin (E:S 1:50 at 37°C) during different time. Cleavage of the peptide was monitored by HPLC using method 1.
HPLC samples (20 μL of each sample with 30 μL of 0.1% trifluoroacetic acid) were injected on a Waters Alliance 2695 HPLC system, equipped with a photodiode array 2996 PDA detector, fraction collector III (WFC III) and the Empower^TM chromatography software for data acquisition (Milford, MA, USA). The column used was a EC 250/4 Nucleosil reversed phase (5 μm particle size, 100 Å pore size, 4 × 250 mm) which was protected by a guard column CC 8/4 Nucleosil 300-5 C4 (Macherey-Nagel, Düren, Germany). The injection volume was 20 μL and detection was performed at λ = 214 nm. Eluants were 0.1% trifluoroacetic acid in water (A) and 0.1% trifluoroacetic acid in 80% acetonitrile (B). The analyses followed a linear gradient program with a flow at 0.8 mL/min. Two method conditions were used:
as §3, §4

[11] = biological target: T1, plasmin; assay: Kinetic analysis of P36 peptide cleavage by plasmin (KM, Kcat); format: biochemical; conditions: P36 8, 16, 32, 64 nM; 1.25 nM plasmin; 30 min, 37°C; HPLC; double-reciprocal plot
Experimental: Michaelis constant (KM) and first-order rate constant of substrate peptide turnover (Kcat) were obtained by digestion of P36 peptide (8, 16, 32, 64 nM), for 30 min at 37°C in the presence of 1.25 nM plasmin. Cleavage of the peptide was monitored by HPLC. From these measurements, Kcat and KM were calculated using double-reciprocal plot of 1/[S] versus 1/v.

[12] = test system: MT1-MMP; assay: P36 peptide cleavage by MT1-MMP; format: biochemical; conditions: preliminary experiments, data not shown
[13] = test system: MMP-2; assay: P36 peptide cleavage by MMP-2; format: biochemical; conditions: preliminary experiments, data not shown
[14] = test system: MMP-1; assay: P36 peptide cleavage by MMP-1; format: biochemical; conditions: preliminary experiments, data not shown
[15] = test system: MMP-9; assay: P36 peptide cleavage by MMP-9; format: biochemical; conditions: preliminary experiments, data not shown
[16] = SKMEL28, plasminogen added (20 μL, 40 μg/mL)
[17] = SKMEL28, plasminogen + aprotinin (10^−5 M)
[18] = E:S 1:50, 37°C, 0, 5, 30, 60 min, HPLC method 1

## NPEDCLYPVSHAHQRTGGN [NC1(XIX), C-terminal NC1(XIX) domain (…), 19 amino acids]
[1]
  Tumor cell migration and invasion: inhibited the migration and invasion capacities of tumor cells in vitro
[2]
  Tumor angiogenesis: inhibited tumor angiogenesis in vitro and in vivo
[3]
  Inhibition of in vivo tumor growth: strong inhibition

## endostatin
[4]; number of experimental cancer models, ref [7], [43]
  Anti-tumor properties: exerts significant anti-tumor properties
[4]; ref [38]
  Metastatic potential of cells: reduces metastatic potential of cells

## CNPEDCLYPVSHAHQR [F4]
[5]; 24 h
  Change in wound closure: −53%
[5]; 48 h
  Change in wound closure: −39%
[5]; 72 h
  Change in wound closure: −36%
[6]
  Time for spontaneous intra-chain disulfide bond formation (C^1123-C^1128): less than 1 h
  Intra-chain disulfide bond formation Cys^1123-Cys^1128: formed an intra-chain disulfide-bond
[7]
  Change in tumor growth (tumor volume): −30%
[8]; SKMEL28, no added plasminogen
  Release of fragments / cleavage of P36 in cell culture: no release
[8]; [16]
  Release of fragments / cleavage of P36 in cell culture: released

## aprotinin [reference compound]
[9]
  Inhibition of plasmin activity: completely inhibited plasmin activity
[10]; aprotinin 10^−5 M, 37°C
  Effect on P36 peptide plasmin digestion: completely abolished
[10]; aprotinin 10^−6 M, 37°C
  Effect on P36 peptide plasmin digestion: completely abolished
[10]; aprotinin 10^−7 M, 37°C
  Effect on P36 peptide plasmin digestion: not sufficient to prevent it
[8]; [17]
  Effect of aprotinin on release of F2, F3 and F4: abolished this release

## (SPGAPGPQGPPGPSGRC) and the totality of the C-terminal NC1(XIX) domain (NPEDCLYPVSHAHQRTGGN) [P36, synthetic peptide composed of the last 36 residues of the human α1(XIX) chain]
[11]
  Kcat: 0.077 s⁻¹
[12]
  Cleavage of P36 by MT1-MMP: Neither MMP-1, MMP-2, MMP-9 nor MT1-MMP were capable to cleave the P36 peptide
[13]
  Cleavage of P36 by MMP-2: Neither MMP-1, MMP-2, MMP-9 nor MT1-MMP were capable to cleave the P36 peptide
[10]; [18]
  Dependence of digestion on time: time-dependent
  Time at which P36 peptide was cleaved by plasmin: ≤ 5 min
[10]; E:S 1:50, 16 h, 37°C, Tris-HCl pH 7.5, MALDI-ToF MS
  Plasmin cleavage site: Arg1138-Thr1139; also recorded: Arg1122-Cys1123
[10]; plasmin 1:50 to 1:400, overnight/16 h, 37°C, HPLC method 1
  Dependence of digestion on plasmin dose: dose-dependent
[6]
  Time for spontaneous intra-chain disulfide bond formation (C^1123-C^1128): less than 1 h
  Intra-chain disulfide bond formation Cys^1123-Cys^1128: formed an intra-chain disulfide-bond
[14]
  Cleavage of P36 by MMP-1: Neither MMP-1, MMP-2, MMP-9 nor MT1-MMP were capable to cleave the P36 peptide
[15]
  Cleavage of P36 by MMP-9: Neither MMP-1, MMP-2, MMP-9 nor MT1-MMP were capable to cleave the P36 peptide
[8]; SKMEL28, no added plasminogen
  Release of fragments / cleavage of P36 in cell culture: no cleavage of P36 peptide occurred
[8]; [17]
  Cleavage of P36 in cell culture in presence of aprotinin: no cleavage of P36 occurred
[8]; [16]
  Release of fragments / cleavage of P36 in cell culture: P36 peptide disappeared

## SPGAPGPQGPPGPSGR [F2, … Col1 domain of P36 peptide]
[8]; SKMEL28, no added plasminogen
  Release of fragments / cleavage of P36 in cell culture: no release
[8]; [16]
  Release of fragments / cleavage of P36 in cell culture: released
